{"source": "PubChem BioAssay AID328", "about": "(DTP/NCI, 2004)", "test_system": "BDF1 mice, P388 leukemia ip, median survival T/C", "test": "NCI In Vivo Anticancer Drug Screen. Data for tumor model P388 Leukemia (intraperitoneal) in B6D2F1 (BDF1) mice", "conditions": "endpoint: median survival time, higher = longer survival", "method_in_brief": "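Vehicle-dosed animals serve as the reference; survival of compound-dosed, tumour-implanted mice is divided by it.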", "key": {"[1]": {"conditions": "dose: 100.0 mg/kg/injection, schedule: Q01DX009 (ip), vehicle: saline with Tween-80"}, "[2]": {"conditions": "dose: 50.0 mg/kg/injection, schedule: Q01DX009 (ip), vehicle: saline"}, "[3]": {"conditions": "dose: 50.0 mg/kg/injection, schedule: Q01DX009 (ip), vehicle: saline with Tween-80"}}, "note": "Toxic doses and inconclusive results are not listed."}
{"smiles": "CCCCNP(=O)(N1CC1)N1CC1", "values": [{"measurement": "T/C", "setting": "dose: 8.0 mg/kg/injection, schedule: Q04DX003 (ip), vehicle: saline with Tween-80", "result": "116 % of control"}, {"measurement": "T/C", "setting": "dose: 8.25 mg/kg/injection, schedule: Q04DX003 (ip), vehicle: saline with Tween-80", "result": "154 % of control"}, {"measurement": "T/C", "setting": "dose: 12.0 mg/kg/injection, schedule: Q04DX003 (ip), vehicle: saline with Tween-80", "result": "100 % of control"}, {"measurement": "T/C", "setting": "dose: 12.5 mg/kg/injection, schedule: Q04DX003 (ip), vehicle: saline with Tween-80", "result": "190 % of control"}, {"measurement": "T/C", "setting": "dose: 18.75 mg/kg/injection, schedule: Q04DX003 (ip), vehicle: saline with Tween-80", "result": "218 % of control"}]}
{"smiles": "CO[C@H](C)[C@@](O)(C(=O)OCC1=CCN2CCC[C@@H]12)C(C)C", "values": [{"measurement": "T/C", "setting": "dose: 20.0 mg/kg/injection, schedule: Q01DX010 (ip), vehicle: carboxymethylcellulose (CMC)", "result": "95 % of control"}, {"measurement": "T/C", "setting": "dose: 40.0 mg/kg/injection, schedule: Q01DX010 (ip), vehicle: carboxymethylcellulose (CMC)", "result": "115 % of control"}, {"measurement": "T/C", "setting": "dose: 80.0 mg/kg/injection, schedule: Q01DX010 (ip), vehicle: carboxymethylcellulose (CMC)", "result": "110 % of control"}]}
{"smiles": "CC(=O)C/C(C)=N\\NC(=S)SCc1ccccc1", "values": [{"measurement": "T/C", "setting": "dose: 75.0 mg/kg/injection, schedule: Q01DX009 (ip), vehicle: saline with Tween-80", "result": "90 % of control"}, {"measurement": "T/C", "setting": "dose: 150.0 mg/kg/injection, schedule: Q01DX009 (ip), vehicle: saline with Tween-80", "result": "97 % of control"}, {"measurement": "T/C", "setting": "dose: 300.0 mg/kg/injection, schedule: Q01DX009 (ip), vehicle: saline with Tween-80", "result": "92 % of control"}]}
{"smiles": "Cc1c(Cl)cccc1N1C(=O)CC(Sc2ccccc2N)C1=O", "note": "(stereo not given)", "values": [{"measurement": "T/C", "setting": "[1]", "result": "110 % of control"}, {"measurement": "T/C", "setting": "dose: 100.0 mg/kg/injection, schedule: Q04DX003 (ip), vehicle: saline with Tween-80", "result": "95 % of control"}, {"measurement": "T/C", "setting": "dose: 200.0 mg/kg/injection, schedule: Q01DX009 (ip), vehicle: saline with Tween-80", "result": "105 % of control"}, {"measurement": "T/C", "setting": "dose: 200.0 mg/kg/injection, schedule: Q04DX003 (ip), vehicle: saline with Tween-80", "result": "104 % of control"}, {"measurement": "T/C", "setting": "dose: 400.0 mg/kg/injection, schedule: Q01DX009 (ip), vehicle: saline with Tween-80", "result": "105 % of control"}, {"measurement": "T/C", "setting": "dose: 400.0 mg/kg/injection, schedule: Q04DX003 (ip), vehicle: saline with Tween-80", "result": "109 % of control"}]}
{"smiles": "CC(=O)N1CCn2nccc21", "values": [{"measurement": "T/C", "setting": "dose: 100.0 mg/kg/injection, schedule: Q04DX003 (ip), vehicle: water", "result": "104 % of control"}, {"measurement": "T/C", "setting": "dose: 200.0 mg/kg/injection, schedule: Q04DX003 (ip), vehicle: water", "result": "90 % of control"}, {"measurement": "T/C", "setting": "dose: 400.0 mg/kg/injection, schedule: Q04DX003 (ip), vehicle: water", "result": "112 % of control"}]}
{"smiles": "CCCC(C(O)c1ccc(OC)cc1)C(O)(C(F)(F)F)C(F)(F)F", "note": "(stereo not given)", "values": [{"measurement": "T/C", "setting": "dose: 100.0 mg/kg/injection, schedule: Q04DX003 (ip), vehicle: other", "result": "90 % of control"}, {"measurement": "T/C", "setting": "dose: 200.0 mg/kg/injection, schedule: Q04DX003 (ip), vehicle: other", "result": "105 % of control"}, {"measurement": "T/C", "setting": "dose: 400.0 mg/kg/injection, schedule: Q04DX003 (ip), vehicle: other", "result": "105 % of control"}]}
{"smiles": "OCC(O)C1CCCCN1", "note": "(stereo not given)", "values": [{"measurement": "T/C", "setting": "[2]", "result": "104 % of control"}, {"measurement": "T/C", "setting": "dose: 100.0 mg/kg/injection, schedule: Q01DX009 (ip), vehicle: saline", "result": "106 % of control"}, {"measurement": "T/C", "setting": "dose: 200.0 mg/kg/injection, schedule: Q01DX009 (ip), vehicle: saline", "result": "104 % of control"}]}
{"smiles": "CCOC(=O)NCNC(=O)OCC", "values": [{"measurement": "T/C", "setting": "dose: 100.0 mg/kg/injection, schedule: Q04DX003 (ip), vehicle: saline sonified", "result": "100 % of control"}, {"measurement": "T/C", "setting": "dose: 200.0 mg/kg/injection, schedule: Q04DX003 (ip), vehicle: saline sonified", "result": "108 % of control"}, {"measurement": "T/C", "setting": "dose: 400.0 mg/kg/injection, schedule: Q04DX003 (ip), vehicle: saline sonified", "result": "108 % of control"}]}
{"smiles": "CN(C)c1cc2nc[nH]c(=O)c2cc1[N+](=O)[O-]", "values": [{"measurement": "T/C", "setting": "dose: 100.0 mg/kg/injection, schedule: Q04DX003 (ip), vehicle: Klucel (hydroxypropylcellulose) (HPC)", "result": "116 % of control"}]}
{"smiles": "ClCCOCCCl", "values": [{"measurement": "T/C", "setting": "[3]", "result": "115 % of control"}, {"measurement": "T/C", "setting": "[1]", "result": "124 % of control"}]}
{"smiles": "Cc1cc(NC(=O)NCCOc2ccc(N3C(N)=NC(N)=NC3(C)C)cc2Cl)ccc1S(=O)(=O)F", "values": [{"measurement": "T/C", "setting": "dose: 12.5 mg/kg/injection, schedule: Q01DX009 (ip), vehicle: saline", "result": "100 % of control"}, {"measurement": "T/C", "setting": "dose: 25.0 mg/kg/injection, schedule: Q01DX009 (ip), vehicle: saline", "result": "113 % of control"}, {"measurement": "T/C", "setting": "[2]", "result": "122 % of control"}]}
{"smiles": "O=C(Nc1ccc(Cl)c(Cl)c1)Nc1cc(Cl)ccc1Sc1ccc(Cl)cc1S(=O)(=O)O", "values": [{"measurement": "T/C", "setting": "dose: 25.0 mg/kg/injection, schedule: Q01DX009 (ip), vehicle: saline with Tween-80", "result": "109 % of control"}, {"measurement": "T/C", "setting": "[3]", "result": "95 % of control"}, {"measurement": "T/C", "setting": "[1]", "result": "90 % of control"}]}
{"smiles": "CC(=O)n1nc2c(c1CC(C)C)C(=O)C(Nc1ccccc1)=CC2=O", "values": [{"measurement": "T/C", "setting": "dose: 100.0 mg/kg/injection, schedule: Q04DX002 (ip), vehicle: saline with Tween-80", "result": "102 % of control"}, {"measurement": "T/C", "setting": "dose: 200.0 mg/kg/injection, schedule: Q04DX002 (ip), vehicle: saline with Tween-80", "result": "108 % of control"}, {"measurement": "T/C", "setting": "dose: 400.0 mg/kg/injection, schedule: Q04DX002 (ip), vehicle: saline with Tween-80", "result": "106 % of control"}]}
{"smiles": "CCN=C=NCCCN(C)C", "values": [{"measurement": "T/C", "setting": "dose: 7.5 mg/kg/injection, schedule: Q01DX009 (ip), vehicle: saline", "result": "105 % of control"}, {"measurement": "T/C", "setting": "dose: 15.0 mg/kg/injection, schedule: Q01DX009 (ip), vehicle: saline", "result": "105 % of control"}, {"measurement": "T/C", "setting": "dose: 30.0 mg/kg/injection, schedule: Q01DX009 (ip), vehicle: saline", "result": "94 % of control"}, {"measurement": "T/C", "setting": "dose: 60.0 mg/kg/injection, schedule: Q01DX009 (ip), vehicle: saline", "result": "100 % of control"}]}
